# Test results published in patent publication US4774248A, “Methods of treating depression and depressive states using 5-phenyl-1,4,5,6-tetrahydropyrimidine derivatives” (priority 1985, dated 1988).
# “Also recorded” adds a separate entry of the source.
# How the values were obtained:
# mice [1] = assay: Motility reduced by hypoxic aggression (acute hypobaric anoxia); type: in vivo; conditions: i.p.
# Description: (§1) In these tests, solutions of the said products in distilled water were administered intraperitoneally in a volume of 20 ml/kg to male mice and in a volume of 5 ml/kg to male rats.
# [2] = system: sleep induced by barbital; assay: Interaction with barbital; type: in vivo; conditions: mice, i.p.; barbital 220 mg/kg
# Description: as §1, with “The results of toxicological and neuropsychopharmacological tests which were carried out with the products according to the invention have been summarized below. In” for “In”
# Half an hour after the administration of CRL 41 378, groups of 10 mice receive an intraperitoneal injection of barbital (220 mg/kg).
# mice [3] = assay: Overall behavior and reactivities in mice; type: in vivo; conditions: i.p.
# How it was run: (§2)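 Male mice (20 ml/kg) and male rats (5 ml/kg) dosed intraperitoneally with compound in distilled water.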
# [4] = system: hypothermia induced by apomorphine; assay: Interaction with apomorphine by gastric administration; type: in vivo; conditions: Mus musculus, male mice, apomorphine 16 mg/kg s.c., read-out: dose as from which the hypothermia induced by apomorphine is opposed
# Description: Each test product is administered gastrically to male mice, in a volume of 20 ml/kg, 0.50 h before the subcutaneous injection of 16 mg/kg of apomorphine.
# [5] = system: central nervous system (CNS); assay: Neuropsychopharmacological profile (conclusions of the tests); type: in vivo, mice and rats
# Description: as §1, with “The results of toxicological and neuropsychopharmacological tests which were carried out with the products according to the invention have been summarized below. In” for “In”
# mice [6] = assay: Motility reduced by habituation to the enclosure; type: in vivo; conditions: i.p.
# Description: as §1, with “The results of toxicological and neuropsychopharmacological tests which were carried out with the products according to the invention have been summarized below. In” for “In”
# After they have stayed in the actimeters for 18 hours, the mice (6 per dose, 12 control animals) receive CRL 41 378. They are immediately returned to their respective enclosures and, half an hour later, their motility is recorded for 30 minutes.
# [7] = system: stereotypies induced by apomorphine; assay: Interaction with apomorphine in rats; type: in vivo; conditions: i.p., apomorphine 0.5 mg/kg s.c., hydrochloride
# Description: as §1, with “The results of toxicological and neuropsychopharmacological tests which were carried out with the products according to the invention have been summarized below. In” for “In”
# CRL 41 378 is administered to groups of 12 rats 0.5 h before the subcutaneous injection of 0.5 mg/kg of apomorphine.
# [8] = system: depressions and depressive states; assay: Clinical trials in depression and depressive states; type: in vivo, human; conditions: daily oral administration to adults
# Description: The clinical trials which have been undertaken have made it possible to determine that the daily dose to be administered orally to adults, in the treatment of depressions and depressive states, is generally between 3 and 120 mg for the products of the formulae Ia and Ib according to the invention.
# rats = assay: Overall behavior and reactivities in rats; type: in vivo; conditions: i.p.
# How it was run: as §2
# pregnant rabbits = assay: Teratogenic effects on pregnant rabbits; type: in vivo
# mice [9] = assay: Four plate test; type: in vivo; conditions: i.p.
# Description: as §1, with “The results of toxicological and neuropsychopharmacological tests which were carried out with the products according to the invention have been summarized below. In” for “In”
# The test is performed on groups of 10 mice 30 minutes after the administration of CRL 41 378.
# [10] = system: hypothermia and ptosis induced by reserpine; assay: Interaction with reserpine; type: in vivo; conditions: mice, i.p.
# How it was run: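 Reserpine 2.5 mg/kg i.p. given to male mice in groups of 12; test compound dissolved in distilled water and given i.p. (20 ml/kg) four hours later.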
# anesthetized dogs = assay: Cardiovascular study in anesthetized dogs; type: in vivo; conditions: route not specified
# mice [11] = assay: Asphyxiant anoxia caused by gallamine triiodoethylate; type: in vivo; conditions: i.p., gallamine triiodoethylate 32 mg/kg
# Description: as §1, with “The results of toxicological and neuropsychopharmacological tests which were carried out with the products according to the invention have been summarized below. In” for “In”
# Groups of 10 mice receive CRL 41 378 30 minutes before the intraperitoneal administration of 32 mg/kg of gallamine triiodoethylate (reference curarizing agent).
# mice [12] = assay: Spontaneous motility (actimeter); type: in vivo; conditions: i.p., hydrochloride
# Description: as §1, with “The results of toxicological and neuropsychopharmacological tests which were carried out with the products according to the invention have been summarized below. In” for “In”
# 0.5 h after they have received CRL 41 378, the mice (6 per dose, 12 control animals) are placed in an actimeter, where their motility is recorded for 30 minutes.
# [13] = system: hypothermia, trembling and peripheral cholinergic symptoms induced by oxotremorine; assay: Interaction with oxotremorine; type: in vivo; conditions: mice, i.p.
# How it was run: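 Male mice, groups of 6, given the compound intraperitoneally in distilled water (20 ml/kg) 0.5 h before 0.5 mg/kg oxotremorine i.p. Hypothermia, trembling and peripheral cholinergic symptoms were assessed.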
# [14] = system: hypothermia, righting behavior and stereotypies induced by apomorphine; assay: Interaction with apomorphine in mice; type: in vivo
# How it was run: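 Male mice, groups of 6, given test compound intraperitoneally in distilled water (20 ml/kg) 30 min before subcutaneous apomorphine at 1 or 16 mg/kg. Hypothermia, righting behaviour and stereotypies scored.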
# mice [15] = assay: Intergroup aggressiveness; type: in vivo
# How it was run: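 Male mice housed 3 weeks per group in cage halves split by an opaque partition; groups of 3 given CRL 41 378 i.p. in distilled water.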
# male mice = assay: Acute toxicity, intraperitoneal (LD0, LD30, LD60, LD100); type: in vivo
# Description: as §1, with “The results of toxicological and neuropsychopharmacological tests which were carried out with the products according to the invention have been summarized below. In” for “In”
# [16] = reserpine 2.5 mg/kg, hydrochloride
structure (smiles),measurement,setting,value
"CC(=O)N1C=NCC(c2ccccc2)C1.Cl (stereo not shown) [CRL 41 378, 1-acetyl-5-phenyl-1,4,5,6-tetrahydropyrimidine hydrochloride]",lethal effects of hypobaric anoxia,mice [1],"At a dose of 64 mg/kg, CRL 41 378 aggravates the effects of hypobaric anoxia and causes the death of all the animals treated"
same,motor recovery after acute hypobaric hypoxia,mice [1],"at doses of 1 mg/kg, 4 mg/kg and 16 mg/kg, CRL 41 378 does not cause a modification of the motor recovery"
same,duration of the sleep induced by barbital,[2],practically no modification of the duration of the sleep induced by barbital
same,overall behavior and reactivities,mice [3]; 1 mg/kg,no distinct modification of the behavior and reactivities compared with the control animals
same,overall behavior and reactivities,mice [3]; 4 mg/kg,"moderate mydriasis for 3 h, the maximum intensity being reached 1 h after administration"
same,overall behavior and reactivities,"mice [3]; 16 mg/kg, hydrochloride",moderate salivation 1 h after administration; also recorded: moderate hypothermia; also recorded: moderate mydriasis 1 h after administration
same,overall behavior and reactivities,"mice [3]; 64 mg/kg, hydrochloride",sedation for 3 h; also recorded: a decrease in the breathing rate appearing between T+0.5 h and T+1 h after administration; also recorded: moderate hypothermia; also recorded: an increase in the reactivity to touch and vasodilation of the paws for 0.5 h; also recorded: salivation appearing between T+1 h and T+2 h after administration; also recorded: mydriasis for 3 h
same,minimal effective dose,[4],≥ 0.5 mg/kg
same,lethal effects of the various convulsants studied,"[5]; electric shock, hypobaric hypoxia, asphyxiant anoxia","aggravates the lethal effects of the various convulsants studied (electric shock, hypobaric hypoxia, asphyxiant anoxia)"
same,antidepressant effects,[5]; i.p.,antidepressant effects appearing as from the lowest doses
same,peripheral anticholinergic activity,[5]; i.p.,absence of peripheral anticholinergic activity
same,stimulant effects,[5]; i.p.,absence of stimulant effects on the CNS
same,peripheral α-adrenergic stimulant effects,"[5]; i.p., hydrochloride","peripheral α-adrenergic stimulant effects appearing at high doses; also recorded: an α1 stimulation component represented by salivation and mydriasis (in mice and rats) and piloerection (in rats); also recorded: moderate hyperthermia in mice; also recorded: peripheral vasodilation (tail, paws and snout) in mice and rats"
same,sedative effects,"[5]; i.p., hydrochloride",sedative effects appearing at high doses; also recorded: sedation in mice
same,overall neuropsychopharmacological profile,"[5]; summary, hydrochloride",an antidepressant exhibiting sedative effects at high doses; also recorded: resembles β-adrenergic stimulants
same,resumption in the motor activity of mice accustomed to their enclosure,mice [6],does not cause a resumption in the motor activity of mice accustomed to their enclosure
same,action on stereotypies induced by apomorphine,[7],"at the two highest doses used (8 and 32 mg/kg), CRL 41 378 seems to cause a moderate decrease in the stereotypies induced by apomorphine; also recorded: moderate antagonism of the stereotyped movements induced by apomorphine in rats"
same,results in human therapy (depression),[8],excellent results
same,overall behavior and reactivities,rats; 0.5 mg/kg,"moderate mydriasis for 2 h, the maximum intensity being reached 0.5 h after administration"
same,overall behavior and reactivities,rats; 2 mg/kg,"mydriasis for 3 h, the maximum intensity also being reached 0.5 h after administration"
same,overall behavior and reactivities,"rats; 32 mg/kg, hydrochloride","a decrease in the breathing rate and muscle tonus for 1 h; also recorded: exophthalmos for 1 h; also recorded: piloerection for 2 h; also recorded: salivation appearing 0.5 h after administration; also recorded: vasodilation of the paws and snout for 0.5 h; also recorded: mydriasis for 2 h, the maximum intensity being reached 0.5 h after administration"
same,teratogenic effects,pregnant rabbits,devoid of harmful teratogenic effects on pregnant rabbits
same,number of punished passes,mice [9],does not modify the number of punished passes
same,minimal effective dose,"[10]; Mus musculus, ip, 24 h after administration, read-out: dose as from which the ptosis induced by reserpine is moderately decreased",≥ 0.5 mg/kg
same,action on hypothermia induced by reserpine,[10]; [16],"at doses of 0.5 mg/kg to 4 mg/kg, CRL 41 378 antagonizes the hypothermia induced by reserpine; also recorded: this effect tends to decrease to nothing at a dose of 16 mg/kg; also recorded: the highest dose used (64 mg/kg) being inactive towards the hypothermia induced by reserpine; also recorded: antagonism of the hypothermia induced by apomorphine, reserpine and oxotremorine in mice"
same,action on ptosis induced by reserpine,[10]; [16],moderate decrease in the ptosis induced by reserpine 24 h after administration; also recorded: absence of distinct antagonism of the ptosis induced by reserpine
same,blood flows through the femoral and vertebral arteries,anesthetized dogs,decreases the blood flows through the femoral and vertebral arteries
same,time taken for convulsions and death / lethal effects of gallamine triiodoethylate,mice [11],"at the highest dose used (64 mg/kg), CRL 41 378 causes a moderate decrease in the time taken for convulsions and death to occur"
same,spontaneous motor activity,mice [12],"at a dose of 16 mg/kg and especially at a dose of 64 mg/kg, CRL 41 378 decreases the spontaneous motor activity of the mice; also recorded: a substantial decrease in the spontaneous motor activity of mice"
same,minimal effective dose,"[13]; Mus musculus, ip, read-out: dose as from which the hypothermia induced by oxotremorine is antagonized",≥ 0.5 mg/kg
same,action on signs of peripheral cholinergic stimulation induced by oxotremorine,[13]; oxotremorine 0.5 mg/kg,practically no modification of the signs of peripheral cholinergic stimulation induced by oxotremorine
same,action on trembling induced by oxotremorine,[13]; oxotremorine 0.5 mg/kg,does not modify the intensity of the trembling induced by oxotremorine
same,action on hypothermia induced by oxotremorine,"[13]; oxotremorine 0.5 mg/kg, hydrochloride","very intense at doses of 2 and 4 mg/kg and is then less significant for the highest doses used (16 and 64 mg/kg); also recorded: antagonism of the hypothermia induced by apomorphine, reserpine and oxotremorine in mice"
same,minimal effective dose,"[14]; Mus musculus, ip, read-out: dose as from which the hypothermia induced by apomorphine is antagonized",≥ 0.5 mg/kg
same,action on righting behavior and stereotypies due to apomorphine,[14]; i.p.,practically no modification of the righting behavior and stereotypies due to apomorphine
same,action on hypothermia induced by apomorphine,"[14]; i.p., hydrochloride","antagonizes the hypothermia induced by apomorphine; also recorded: antagonism of the hypothermia induced by apomorphine, reserpine and oxotremorine in mice"
same,minimal effective dose,"mice [15]; Mus musculus, ip, read-out: dose as from which the intergroup aggressiveness is decreased",≥ 0.5 mg/kg
same,intergroup aggressiveness (number of fights),"mice [15]; mice, i.p., hydrochloride","decreases the intergroup aggressiveness as from a dose of 0.5 mg/kg but especially at doses of 2 mg/kg, 4 mg/kg and 16 mg/kg; also recorded: a decrease in the intergroup aggressiveness of mice (at doses which do not decrease the spontaneous motor activity)"
same,toxic signs in the animals treated,male mice; 256 mg/kg i.p.,"all the animals treated exhibit dyspnea, substantial salivation and convulsions 10 minutes after administration"
same,LD0 (maximum non-lethal dose),male mice; intraperitoneal,greater than 256 mg/kg
